The source of these data is patent US20250312369A1, “ANTI-AGING AND ANTI-INFLAMMATORY COMPOSITIONS COMPRISING NICOTINAMIDE MONONUCLEOTIDE AND RESVERATROL AND USES THEREOF” (WONDERFEEL, priority 2022, published 2025).

For data set [1] the following is noted: prediabetic women, clinical trial 2021; cited from earlier work.
For data set [2], the system named is human lung epithelial cell line (A549). Nature of the data set: LDH release after hydrogen peroxide and hypoxic injury in A549 cells. Type of data set: cell-based. The conditions noted are these: 100 micromolar H2O2, 18 hours at 37° C., 95% nitrogen and 5% carbon dioxide, treatment agents 10 micromolar in the media. The procedure: In order to model cytoprotective effects of the invention, a reductionist in vitro model was employed wherein a human lung epithelial cell line (A549) was exposed to severe oxidant and hypoxic stress. Cultured A549 cells were placed in 96 well plates, incubated in Dulbecco's Modified Eagle's Medium (DMEM), and allowed to grow to confluence over 72 hours. Cellular injury was created by the addition into the media of 100 micromolar hydrogen peroxide (H2O2), followed by incubation at 37° C. for 18 hours in an atmosphere of 95% nitrogen and 5% carbon dioxide, which maintained a pH in the incubation media of 7.4. Three experimental arms were evaluated, using quadruplicate replicates, as follows: a) media control, b) NMN, and c) NMN plus resveratrol and hydroxytyrosol. A control arm was examined that was not exposed to hydrogen peroxide. The treatment agents were added such that their final concentration in the media was 10 micromolar. lactate dehydrogenase (LDH) was assayed in the media after 18 hours using a commercial kit, based upon a colorimetric change quantified by visible spectrophotometry.

For data set [3] the following is noted: animals and humans, even at high doses; cited from earlier work.
Data set [4] concerns sirtuin-1. The conditions noted are these: 500 mg/day, healthy and slightly overweight subjects; cited from earlier work.

As for `NC(=O)c1ccc[n+]([C@@H]2O[C@H](COP(=O)([O-])O)[C@@H](O)[C@H]2O)c1` [NMN, 3-carbamoyl-1-[5-O-(hydroxyphosphinato)-β-D-ribofuranosyl] pyridinium], in data set [1], the muscular insulin sensitivity entry was “improve muscular insulin sensitivity”. Further, the “reduction in the elevation in LDH release produced by addition of hydrogen peroxide alone” value in data set [2] stood at 14%.

`C[N+](C)(C)[C@@H](Cc1c[nH]c(=S)[nH]1)C(=O)[O-]` [ergothioneine, (2S)-3-(2-sulfanylidene-2,3-dihydro-1H-imidazol-4-yl)-2-(trimethylazaniumyl)propanoate]: the “toxicity or adverse effects associated with administration” value in data set [3] is “no toxicity or adverse effects”.

`Oc1ccc(/C=C/c2cc(O)cc(O)c2)cc1` [resveratrol, 3,4′,5-trihydroxy-trans-stilbene]: the “gene expression and serum concentration of sirtuin-1” value in data set [4] was “higher gene expression and serum concentration of sirtuin-1”.
